In general, Ki refers to a dissociation constant, usually derived from enzyme kinetics or from competition with a known ligand.

Where two headings read alike, the source gives them in different places.

Assay [1] addresses T1, human recombinant α1b adrenoceptor (Homo sapiens, UniProt P35368).
T1 construct: expressed in transfected cells; host or cells: CHO cells (membranes)
T1 sequence (P35368 1-520): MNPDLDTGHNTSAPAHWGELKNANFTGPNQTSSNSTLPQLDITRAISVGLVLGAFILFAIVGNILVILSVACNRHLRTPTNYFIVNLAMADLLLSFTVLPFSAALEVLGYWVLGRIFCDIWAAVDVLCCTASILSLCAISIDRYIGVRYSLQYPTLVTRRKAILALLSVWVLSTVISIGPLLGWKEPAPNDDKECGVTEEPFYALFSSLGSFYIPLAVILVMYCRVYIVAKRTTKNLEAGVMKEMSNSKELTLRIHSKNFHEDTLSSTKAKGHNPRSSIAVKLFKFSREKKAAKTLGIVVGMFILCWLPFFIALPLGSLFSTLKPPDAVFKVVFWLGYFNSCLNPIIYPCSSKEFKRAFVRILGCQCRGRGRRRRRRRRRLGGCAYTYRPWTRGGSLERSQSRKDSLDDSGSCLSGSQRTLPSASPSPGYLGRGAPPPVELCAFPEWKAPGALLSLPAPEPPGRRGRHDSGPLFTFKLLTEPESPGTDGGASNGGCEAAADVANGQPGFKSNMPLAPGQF
The assay can be described thus: Radioligand binding ([3H]prazosin) on membranes of CHO cells expressing cloned α1b adrenoceptor. The following applies: human cloned receptor, CHO cell membranes, 0.2 nM [3H]prazosin; read-out: Affinity (Ki) α1b. As to the method: (§1) The determination of affinity for cloned subtypes of human α1 adrenergic receptors was performed in membranes from CHO cells (chinese hamster ovary cells) transfected by electroporation with DNA expressing the genes encoding each α1-adrenoceptor subtype, namely α1a, α1b and α1d.. Cloning and stable expression of the human α1-adrenoceptor gene were performed as previously described (Testa et al., Pharmacol. Comm. 6, 79-86 (1995)). CHO cell membranes were incubated in […] Tris pH 7.4 with 0.2 nM [^3H]prazosin, in a final volume of 1.02 ml for 30 minutes at 25°C, in the absence or presence of competing drugs (1 pM-10 µM). Non-specific binding was determined in the presence of 10 µM phentolamine. Incubation was stopped by addition of ice-cold Tris buffer and rapid filtration through 0.2% polyethyleneimine pretreated Schleicher & Schuell GF52 filters. Genomic clone G-21 coding for the human 5-HT1A-serotoninergic receptor was stably transfected in a human cell line (HeLa) (Fargin et al., J. Biol. Chem. 284, 14848-14852 (1989)). The HeLa cells were grown as monolayers in Dulbecco's modified Eagle's medium (DMEM), supplemented with 10% foetal calf serum and gentamicin (100 µg/ml), 5% CO2, at 37°C. The cells were detached from the growth flask at 95% confluence by a cell scraper and were lysed in ice-cold 5 mM Tris and 5-mM EDTA buffer (pH 7.4). The homogenates were centrifuged at 40000 x g x 20 minutes and the membranes were re-suspended in a small volume of ice-cold 5 mM Tris and 5-mM EDTA buffer (pH 7.4) and immediately frozen and stored at -70°C until use. On the experiment day, the cell membranes were re-suspended in a buffer containing 50 mM Tris (pH 7.4), 2.5 mM MgCl2, 10 µM pargyline (Fargin et al., Nature 335, 358-360 (1988)). […] The incubation was stopped by addition of ice-cold Tris buffer and rapid filtration through 0.2%-polyethyleneimine-pretreated Schleicher & Schuell filters. The inhibition of specific binding of the radioligands by the drugs was analysed to estimate the IC50 value by using the non-linear curve-fitting programme Allfit (De Lean et al., Am. J. Physiol. 235, E97-E102 (1978)). The IC50 value was converted to an affinity constant (Ki) by the equation of Cheng & Prusoff (Biochem. Pharmacol. 22, 3099-3108 (1973)). Data were expressed as mean of Ki.

In assay [2] the target is T2, human 5-HT1A-serotoninergic receptor (Homo sapiens, UniProt P08908).
T2 construct: expressed in transfected cells; host or cells: HeLa cells (membranes)
T2 sequence (P08908 1-422): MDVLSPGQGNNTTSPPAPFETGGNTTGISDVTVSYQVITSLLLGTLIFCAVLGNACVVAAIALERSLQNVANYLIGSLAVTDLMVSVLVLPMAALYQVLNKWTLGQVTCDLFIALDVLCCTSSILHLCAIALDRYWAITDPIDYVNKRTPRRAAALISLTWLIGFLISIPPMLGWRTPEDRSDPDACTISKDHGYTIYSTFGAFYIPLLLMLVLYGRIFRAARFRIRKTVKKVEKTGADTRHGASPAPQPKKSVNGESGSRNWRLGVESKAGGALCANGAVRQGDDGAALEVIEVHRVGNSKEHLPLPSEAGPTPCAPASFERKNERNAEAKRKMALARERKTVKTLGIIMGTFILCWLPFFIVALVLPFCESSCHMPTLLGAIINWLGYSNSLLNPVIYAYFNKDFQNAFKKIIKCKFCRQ
Description: Radioligand binding ([3H]8-OH-DPAT) on membranes of HeLa cells expressing cloned 5-HT1A receptor. The note with it: read-out: Affinity (Ki) 5-HT1A. Here is the method: as §1

Where [3] appears, read: human cloned receptor, HeLa cell membranes, 1.2 nM [3H]8-OH-DPAT.

For `O=C1CC2(CCCC2)CC(=O)N1CCN1CCN(c2cc(Cl)ccc2Cl)CC1` [Example 1, 8-{2-[4-(2,5-Dichlorophenyl)-1-piperazinyl]-ethyl}-8-azaspiro[4.5]decane-7,9-dione], the results for the Ki in assay [1] and in assay [2] (setting [3]) were 9.9 nM and 36 nM, respectively.

Consider `O=C1CC2(CCCC2)CC(=O)N1CCN1CCN(c2cc(I)ccc2Cl)CC1` [Example 10, 8-{2-[4-(2-Chloro-5-iodophenyl)-1-piperazinyl]-ethyl}-8-azaspiro[4.5]decane-7,9-dione], for which the Ki in assay [1] stood at 448 nM; in assay [2] (setting [3]), 804 nM.

In the case of `O=C1CCCC(=O)N1CCN1CCN(c2cc(Cl)ccc2Cl)CC1` [Example 2, 1-{2-[4-(2,5-Dichlorophenyl)-1-piperazinyl]-ethyl}-piperidinyl-2,6-dione], the Ki is 54.1 nM in assay [1] and 258 nM in assay [2] (setting [3]).

Take `Cc1ccc(F)c(N2CCN(CCN3C(=O)CC4(CCCC4)CC3=O)CC2)c1` [Example 4, 8-{2-[4-(2-Fluoro-5-methylphenyl)-1-piperazinyl]-ethyl}-8-azaspiro[4.5]decane-7,9-dione]: the Ki turned out to be 119 nM in assay [1] and 52.3 nM in assay [2] (setting [3]).

Regarding `O=C1CC2(C=CN1CCN1CCN(c3cc(Cl)ccc3Cl)CC1)CCCC2` [Example 20, 8-{2-[4-(2,5-Dichlorophenyl)-1-piperazinyl]-ethyl}-8-azaspiro[4.5]dec-9,10-en-7-one], the Ki is 15.8 nM in assay [1] and 91.9 nM in assay [2] (setting [3]).

Turning to `Cc1ccc(C)c(N2CCN(CCN3C(=O)CC4(CCCC4)CC3=O)CC2)c1` [Example 5, 8-{2-[4-(2,5-Dimethylphenyl)-1-piperazinyl]-ethyl}-8-azaspiro[4.5]decane-7,9-dione], the Ki was 168 nM in assay [1] and 275 nM in assay [2] (setting [3]).

On to `N#Cc1ccc(Cl)cc1N1CCN(CCN2C(=O)CC3(CCCC3)CC2=O)CC1` [Example 8, 8-{2-[4-(5-Chloro-2-cyanophenyl)-1-piperazinyl]-ethyl}-8-azaspiro[4.5]decane-7,9-dione], for which the Ki was found to be 17 nM in assay [1] and 29.6 nM in assay [2] (setting [3]).

As for `O=C1CC2(CCCC2)CC(=O)N1CCN1CCC(c2cc(Cl)ccc2Cl)CC1` [Example 17, 8-{2-[4-(2,5-Dichlorophenyl)-1-piperidinyl]-ethyl}-8-azaspiro[4.5]decane-7,9-dione], the Ki in assay [1] stood at 37.6 nM; in assay [2] (setting [3]), 248 nM.

Turning to `O=C1CC2(CCCC2)CC(=O)N1CCN1CCN(c2cc(Br)ccc2Br)CC1` [Example 7, 8-{2-[4-(2,5-Dibromophenyl)-1-piperazinyl]-ethyl}-8-azaspiro[4.5]decane-7,9-dione], the Ki in assay [1] was 47.5 nM; in assay [2] (setting [3]), 62.2 nM.

`CCC1(C)CC(=O)N(CCN2CCN(c3cc(Cl)ccc3Cl)CC2)C(=O)C1` [Example 13, 1-{2-[4-(2,5-Dichlorophenyl)-1-piperazinyl]-ethyl}-4-ethyl-4-methylpiperidinyl-2,6-dione]: the Ki in assay [1] is 43.4 nM; in assay [2] (setting [3]), 104 nM.

With `O=C1CC2(CCCC2)CC(=O)N1CCN1CCN(c2cc(F)ccc2Cl)CC1` [Example 9, 8-{2-[4-(2-Chloro-5-fluorophenyl)-1-piperazinyl]-ethyl}-8-azaspiro[4.5]decane-7,9-dione], the Ki in assay [1] was 10.1 nM; in assay [2] (setting [3]), 12.1 nM.

Consider `O=C1CC2(CCCC2)CC(=O)N1CCN1CCN(c2cc(C(F)(F)F)ccc2F)CC1` [Example 6, 8-{2-[4-(2-Fluoro-5-trifluoromethylphenyl)-1-piperazinyl]-ethyl}-8-azaspiro[4.5]decane-7,9-dione], for which the Ki was > 1000 nM in assay [1] and 160 nM in assay [2] (setting [3]).

On to `CC(CN1CCN(c2cc(Cl)ccc2Cl)CC1)N1C(=O)CC2(CCCC2)CC1=O` (stereo not drawn) [Example 16, 8-{2-[4-(2,5-Dichlorophenyl)-1-piperazinyl]-1-methylethyl}-8-azaspiro[4.5]decane-7,9-dione], for which the Ki turned out to be 13.1 nM in assay [1] and 207 nM in assay [2] (setting [3]).

Regarding `CN(CCN1C(=O)CC2(CCCC2)CC1=O)CCN(C)c1cc(Cl)ccc1Cl` [Example 18, N-(2,5-Dichlorophenyl)-N'-{2-(7,9-dioxo-8-azaspiro[4.5]decane-8-yl)-ethyl}-N,N'-dimethyl-1,2-diaminoethane], the Ki in assay [1] was 915 nM; in assay [2] (setting [3]), 433 nM.

With `O=C1CC2(CCCC2)C(=O)N1CCN1CCN(c2cc(Cl)ccc2Cl)CC1` [Example 14, 2-{2-[4-(2,5-Dichlorophenyl)-1-piperazinyl]-ethyl}-2-azaspiro[4.4]nonane-1,3-dione], the Ki in assay [1] is 83.6 nM; in assay [2], > 1000 nM.

For `O=C1CC2(CCCC2)CCN1CCN1CCN(c2cc(F)c(F)cc2F)CC1` [Example 24, 8-{2-[4-(2,4,5-Trifluorophenyl)-1-piperazinyl]-ethyl}-8-azaspiro[4.5]decane-7-one], the Ki in assay [1] is 22.7 nM; in assay [2], 214 nM.

As for `O=C1CC2(CCCCC2)CC(=O)N1CCN1CCN(c2cc(Cl)ccc2Cl)CC1` [Example 11, 3-{2-[4-(2,5-Dichlorophenyl)-1-piperazinyl]-ethyl}-3-azaspiro[5.5]undecane-2,4-dione], the figures for the Ki in assay [1] and in assay [2] (setting [3]) were 52.9 nM and 128 nM, respectively.

As to `O=C1CC2(CCC2)CC(=O)N1CCN1CCN(c2cc(Cl)ccc2Cl)CC1` [Example 15, 7-{2-[4-(2,5-Dichlorophenyl)-1-piperazinyl]-ethyl}-7-azaspiro[3.5]nonane-6,8-dione], the figures for the Ki in assay [1] and in assay [2] were 79.6 nM and > 1000 nM, respectively.
